ChEMBL document CHEMBL5370642, “Synthesis and Bioevaluation of 3-(Arylmethylene)indole Derivatives: Discovery of a Novel ALK Modulator with Antiglioblastoma Activities” (J Med Chem, 2023)
Active and inactive are the calls of the source. The rule behind the calls is not given here.

Columns and labels:
GL261 [1] = assay: Anti-proliferative activity against mouse GL261 cells assessed as cell viability incubated for 2 hrs by CCK8 assay; assay type: functional, cell-based; details: GL261, 2 h
U-87 MG [2] = assay: Anti-proliferative activity against human U-87 MG cells assessed as cell viability incubated for 2 hrs by CCK8 assay; assay type: functional, cell-based, U-87MG ATCC
GL261 [3] = assay: Anti-proliferative activity against […] GL261 cells assessed as inhibition rate incubated for 48 hrs by CCK8 assay; assay type: functional, cell-based
U-87 MG [4] = assay: Anti-proliferative activity against human U-87 MG cells assessed as inhibition rate incubated for 48 hrs by CCK8 assay; assay type: functional, cell-based; details: U-87MG ATCC

Row | SMILES | IC50 (GL261 [1]) [µM] | IC50 (U-87 MG [2]) [µM] | inhibition (GL261 [3]) | inhibition (U-87 MG [4])
1 | Cc1ccc(S(=O)(=O)n2cc(Cc3cc(C)c(O)c(C)c3)c3cc(F)ccc32)cc1 | 100 | 42.6 | – | –
2 | Cc1cc(Cc2cn(C(=O)c3ccc(Cl)cc3)c3ccccc23)cc(C)c1O | 100 | 41.3 | – | –
3 | Cc1ccc(S(=O)(=O)n2cc(Cc3cc(C)c(O)c(C)c3)c3cc(C)ccc32)cc1 | 12.3 | 20.7 | – | –
4 | CC(=O)n1cc(Cc2cc(C)c(O)c(C)c2)c2ccccc21 | 25.4 | 58.3 | – | –
5 | COc1c(C)cc(Cc2cn(S(=O)(=O)c3ccc(C)cc3)c3ccccc23)cc1C | 100 | > 100 | – | –
6 | COc1ccc2c(Cc3cc(C)c(O)c(C)c3)cn(S(=O)(=O)c3ccc(C)cc3)c2c1 | 38.5 | 10.4 | – | –
7 | Cc1cc(Cc2cn(S(C)(=O)=O)c3ccccc23)cc(C)c1O | 100 | > 100 | – | –
8 | Cc1ccc(S(=O)(=O)n2cc(Cc3cc(C)c(O)c(C)c3)c3cc([N+](=O)[O-])ccc32)cc1 | 19.7 | 23.2 | – | –
9 | Cc1cc(Cc2cn(C(=O)c3ccnc4ccccc34)c3ccccc23)cc(C)c1O | 11.4 | > 100 | – | –
10 | Cc1ccc(S(=O)(=O)n2cc(Cc3cc(C)c(O)c(C)c3)c3cc(C#N)ccc32)cc1 | 9.6 | 30.2 | – | –
11 | COc1ccc2c(c1)c(Cc1cc(C)c(O)c(C)c1)cn2S(=O)(=O)c1ccc(C)cc1 | 56.1 | 28.1 | – | –
12 | OCc1c[nH]c2ccccc12 [INDOLE-3-CARBINOL] | 100 | > 100 | – | –
13 | Cc1ccc(S(=O)(=O)n2cc(Cc3cc(C(C)(C)C)c(O)c(C(C)(C)C)c3)c3ccccc32)cc1 | 100 | > 100 | – | –
14 | Cc1cc(Cc2cn(C(=O)c3ccc([N+](=O)[O-])cc3)c3ccccc23)cc(C)c1O | 100 | > 100 | – | –
15 | CCC(=O)n1cc(Cc2cc(C)c(O)c(C)c2)c2ccccc21 | 2850 | 100 | – | –
16 | Cc1cc(Cc2cn(S(=O)(=O)c3ccc([N+](=O)[O-])cc3)c3ccccc23)cc(C)c1O | 100 | > 100 | – | –

Row | SMILES | IC50 (GL261 [1]) [µM] | IC50 (U-87 MG [2]) [µM] | inhibition (GL261 [3]) | inhibition (U-87 MG [4])
17 | Cc1cc(Cc2cn(C)c3ccccc23)cc(C)c1O | 12.7 | 7.96 | – | –
18 | Cc1ccc(S(=O)(=O)n2cc(Cc3cc(C)c(O)c(C)c3)c3cc(NC(=O)CCCC[C@@H]4SC[C@@H]5NC(=O)N[C@@H]54)ccc32)cc1 | – | – | Active | Active
19 | Cc1cc(Cc2cn(S(=O)(=O)c3ccc(Br)cc3)c3ccccc23)cc(C)c1O | 100 | > 100 | – | –
20 | Cc1ccc(S(=O)(=O)n2cc(Cc3cc(C(C)C)c(O)c(C(C)C)c3)c3ccccc32)cc1 | 90.3 | 75.4 | – | –
21 | Cc1cc(Cc2c[nH]c3ccccc23)cc(C)c1O | 12.8 | > 100 | – | –
22 | CC(C)c1cccc(C(C)C)c1O [PROPOFOL] | 100 | > 100 | – | –
23 | Cc1cc(Cc2cn(Cc3ccc(Cl)cc3)c3ccccc23)cc(C)c1O | 54.9 | 87.8 | – | –
24 | Cc1cc(Cc2cn(C(=O)c3ccc(N4CCN(C)CC4)cc3)c3ccccc23)cc(C)c1O | 3.49 | 5.59 | – | –
25 | CCn1cc(Cc2cc(C)c(O)c(C)c2)c2ccccc21 | 100 | > 100 | – | –
26 | Cc1cc(Cc2c[nH]c3ccc([N+](=O)[O-])cc23)cc(C)c1O | 43.8 | 74.6 | – | –
27 | C[C@@H](Oc1cc(-c2cnn(C3CCNCC3)c2)cnc1N)c1c(Cl)ccc(F)c1Cl [CRIZOTINIB] | 3.43 | 7.29 | – | –
28 | Cc1cc(Cc2cn(C(=O)c3ccncn3)c3ccccc23)cc(C)c1O | 13.3 | > 100 | – | –
29 | Cc1cc(Cc2c[nH]c3ccc(F)cc23)cc(C)c1O | 19.2 | 55.1 | – | –
30 | Cc1cc(Cc2cn(S(=O)(=O)c3ccc([N+](=O)[O-])c(Cl)c3)c3ccccc23)cc(C)c1O | 15.7 | 3.52 | – | –
31 | Cc1cc(Cc2cn(C(=O)c3ccc(N4CCOCC4)cc3)c3ccccc23)cc(C)c1O | 12.7 | 12.6 | – | –
